Experimental data reported in PubChem BioAssay (NCI).
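GI50 is the concentration that inhibits growth by half. Definition used: TGI = concentration required for complete inhibition of growth.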

How the values were obtained:
Experiment in all cases: growth of human tumour cells (NCI), 384-well format
LOX IMVI melanoma = test system: LOX IMVI melanoma
HS 578T breast = test system: HS 578T breast
TK-10 renal = test system: TK-10 renal
UO-31 renal = test system: UO-31 renal
HL-60(TB) leukemia = test system: HL-60(TB) leukemia
NCI-H460 NSCLC = test system: NCI-H460 NSCLC
COLO 205 colon = test system: COLO 205 colon
RXF 393 renal = test system: RXF 393 renal
NCI-H23 lung = test system: NCI-H23 lung
SF-268 CNS = test system: SF-268 CNS
BT-549 breast = test system: BT-549 breast
SNB-19 CNS = test system: SNB-19 CNS
U251 glioblastoma = test system: U251 glioblastoma
OVCAR-3 ovarian = test system: OVCAR-3 ovarian
DU-145 prostate = test system: DU-145 prostate
HOP-62 NSCLC = test system: HOP-62 NSCLC
KM12 colon = test system: KM12 colon
SN12C renal = test system: SN12C renal
RPMI-8226 leukemia = test system: RPMI-8226 leukemia
OVCAR-5 ovarian = test system: OVCAR-5 ovarian
CCRF-CEM leukemia = test system: CCRF-CEM leukemia
SNB-75 CNS = test system: SNB-75 CNS
A498 renal = test system: A498 renal
MDA-MB-468 breast = test system: MDA-MB-468 breast
SF-539 CNS = test system: SF-539 CNS
M14 melanoma = test system: M14 melanoma
786-0 renal = test system: 786-0 renal
SK-MEL-28 melanoma = test system: SK-MEL-28 melanoma
NCI-H522 lung = test system: NCI-H522 lung
SR leukemia = test system: SR leukemia
HOP-92 NSCLC = test system: HOP-92 NSCLC
HCT-15 colon = test system: HCT-15 colon
OVCAR-8 ovarian = test system: OVCAR-8 ovarian
MOLT-4 leukemia = test system: MOLT-4 leukemia
SW-620 colon = test system: SW-620 colon
IGROV1 ovarian = test system: IGROV1 ovarian
MALME-3M melanoma = test system: MALME-3M melanoma
SF-295 CNS = test system: SF-295 CNS
K-562 leukemia = test system: K-562 leukemia
HT29 colon = test system: HT29 colon
MDA-MB-435 melanoma = test system: MDA-MB-435 melanoma
NCI/ADR-RES ovarian = test system: NCI/ADR-RES ovarian
OVCAR-4 ovarian = test system: OVCAR-4 ovarian
PC-3 prostate = test system: PC-3 prostate
A549 NSCLC = test system: A549 NSCLC
MCF7 breast = test system: MCF7 breast
EKVX NSCLC = test system: EKVX NSCLC
T-47D breast = test system: T-47D breast
ACHN renal = test system: ACHN renal
MDA-MB-231 breast = test system: MDA-MB-231 breast
SK-MEL-5 melanoma = test system: SK-MEL-5 melanoma
HCC-2998 colon = test system: HCC-2998 colon
SK-OV-3 ovarian = test system: SK-OV-3 ovarian
UACC-257 melanoma = test system: UACC-257 melanoma
NCI-H226 lung = test system: NCI-H226 lung
CAKI-1 renal = test system: CAKI-1 renal
NCI-H322M lung = test system: NCI-H322M lung
UACC-62 melanoma = test system: UACC-62 melanoma

## CC(CN(C)C)S(=O)(=O)c1ccc(-c2cnc(N)c(C(=O)Nc3ccccc3)n2)cc1 (stereo unspecified)
LOX IMVI melanoma
  GI50: 2.48 µM
  TGI: 11.5 µM
HS 578T breast
  GI50: 0.837 µM
  TGI: 3.17 µM
TK-10 renal
  GI50: 0.993 µM
  TGI: 7.61 µM
UO-31 renal
  GI50: 3.64 µM
  TGI: > 100 µM
HL-60(TB) leukemia
  GI50: 1.49 µM
  TGI: 2.83 µM
NCI-H460 NSCLC
  GI50: 0.696 µM
  TGI: 6.72 µM
COLO 205 colon
  GI50: 2.25 µM
  TGI: 5.9 µM
RXF 393 renal
  GI50: 2.03 µM
  TGI: 10.7 µM
NCI-H23 lung
  GI50: 1.07 µM
  TGI: 4.51 µM
SF-268 CNS
  GI50: 3.49 µM
  TGI: 12.4 µM
BT-549 breast
  GI50: 0.556 µM
  TGI: 2.69 µM
SNB-19 CNS
  GI50: 4.56 µM
  TGI: 18.5 µM
U251 glioblastoma
  GI50: 2.51 µM
  TGI: 12.1 µM
OVCAR-3 ovarian
  GI50: 3.04 µM
  TGI: 14.2 µM
DU-145 prostate
  GI50: 2.9 µM
  TGI: 13.4 µM
HOP-62 NSCLC
  GI50: 2.3 µM
  TGI: 14.1 µM
KM12 colon
  GI50: 2.79 µM
  TGI: 12.3 µM
SN12C renal
  GI50: 5.15 µM
  TGI: 20 µM
RPMI-8226 leukemia
  GI50: 1.56 µM
  TGI: 4.48 µM
OVCAR-5 ovarian
  GI50: 3.84 µM
  TGI: 14 µM
CCRF-CEM leukemia
  GI50: 0.519 µM
  TGI: 1.66 µM
SNB-75 CNS
  GI50: 9.27 µM
  TGI: > 100 µM
A498 renal
  GI50: 0.343 µM
  TGI: 1.35 µM
MDA-MB-468 breast
  GI50: 0.412 µM
  TGI: 1.34 µM
SF-539 CNS
  GI50: 1.14 µM
  TGI: 2.62 µM
M14 melanoma
  GI50: 1.73 µM
  TGI: 10.7 µM
786-0 renal
  GI50: 0.753 µM
  TGI: 2.66 µM
SK-MEL-28 melanoma
  GI50: 2.39 µM
  TGI: 6.47 µM
NCI-H522 lung
  GI50: 10.3 µM
  TGI: 22.3 µM
SR leukemia
  GI50: 0.385 µM
  TGI: 1.4 µM
HOP-92 NSCLC
  GI50: 1.4 µM
  TGI: 10.8 µM
HCT-15 colon
  GI50: 1.03 µM
  TGI: 2.43 µM
OVCAR-8 ovarian
  GI50: 3.82 µM
  TGI: 14.9 µM
MOLT-4 leukemia
  GI50: 0.515 µM
  TGI: 1.62 µM
SW-620 colon
  GI50: 1.71 µM
  TGI: 3.25 µM
IGROV1 ovarian
  GI50: 1.99 µM
  TGI: 5.27 µM
MALME-3M melanoma
  GI50: 1.81 µM
  TGI: 5.29 µM
SF-295 CNS
  GI50: 2.85 µM
  TGI: 9.55 µM
K-562 leukemia
  GI50: 1.89 µM
  TGI: 3.53 µM
HT29 colon
  GI50: 1.61 µM
  TGI: 3.69 µM
MDA-MB-435 melanoma
  GI50: 3.82 µM
  TGI: 16.1 µM
NCI/ADR-RES ovarian
  GI50: 3.11 µM
  TGI: 15.1 µM
OVCAR-4 ovarian
  GI50: 1.13 µM
  TGI: 4.19 µM
PC-3 prostate
  GI50: 5.52 µM
  TGI: 24.4 µM
A549 NSCLC
  GI50: 2.17 µM
  TGI: 27.5 µM
MCF7 breast
  GI50: 0.844 µM
  TGI: 13.4 µM
EKVX NSCLC
  GI50: 8.14 µM
  TGI: 31.3 µM
T-47D breast
  GI50: 9.82 µM
  TGI: 22.2 µM
ACHN renal
  GI50: 0.979 µM
  TGI: 7.41 µM
MDA-MB-231 breast
  GI50: 12.9 µM
  TGI: 36.3 µM
SK-MEL-5 melanoma
  GI50: 2.27 µM
  TGI: 6.06 µM
HCC-2998 colon
  GI50: 0.314 µM
  TGI: 0.937 µM
SK-OV-3 ovarian
  GI50: 2.18 µM
  TGI: 13.1 µM
UACC-257 melanoma
  GI50: 1.73 µM
  TGI: 3.35 µM
NCI-H226 lung
  GI50: 3.25 µM
  TGI: 12.9 µM
CAKI-1 renal
  GI50: 2.77 µM
  TGI: 14.7 µM
NCI-H322M lung
  GI50: 1.1 µM
  TGI: 15.5 µM
UACC-62 melanoma
  GI50: 2.14 µM
  TGI: 9.84 µM
